In the data set the test system is CCRIS mutagenicity, Ames/micronucleus/aberration tests. The experiment in a line: CCRIS mutagenicity studies.
The mark [1] stands for this setting: Test System: AMES SALMONELLA TYPHIMURIUM, Strain/Indicator: TA98, Metabolic Activation: NONE, Method: PREINCUBATION
Setting [2] is: Test System: AMES SALMONELLA TYPHIMURIUM, Strain/Indicator: TA98, Metabolic Activation: RAT, LIVER, S-9, AROCLOR 1254, Method: STANDARD PLATE.
[3] abbreviates: Test System: AMES SALMONELLA TYPHIMURIUM, Strain/Indicator: TA100, Metabolic Activation: NONE, Method: PREINCUBATION
Setting [4] is: Test System: AMES SALMONELLA TYPHIMURIUM, Strain/Indicator: TA100, Metabolic Activation: RAT, LIVER, S-9, AROCLOR 1254, Method: STANDARD PLATE.

The structures appear in SMILES notation. The source made the active and inactive calls. How the calls were made is not given here.

With `CN(C)c1ccc(C(=N)c2ccc(N(C)C)cc2)cc1`, the mutagenic call runs as follows: (Test System: AMES SALMONELLA TYPHIMURIUM, Strain/Indicator: TA97, Metabolic Activation: NONE, Method: STANDARD PLATE) “inactive; negative”; (Test System: AMES SALMONELLA TYPHIMURIUM, Strain/Indicator: TA97, Metabolic Activation: RAT, LIVER, S-9, AROCLOR 1254, Method: STANDARD PLATE) “inactive; negative”; (Test System: AMES SALMONELLA TYPHIMURIUM, Strain/Indicator: TA98, Metabolic Activation: HAMSTER, LIVER, S-9, AROCLOR 1254 (30%), Method: PREINCUBATION) “active; positive”; under setting [1], “inactive; negative”; (Test System: AMES SALMONELLA TYPHIMURIUM, Strain/Indicator: TA98, Metabolic Activation: NONE, Method: STANDARD PLATE) “inactive; negative”; (Test System: AMES SALMONELLA TYPHIMURIUM, Strain/Indicator: TA98, Metabolic Activation: RAT, LIVER, S-9, AROCLOR 1254 (30%), Method: PREINCUBATION) “active; positive”. Moreover, the mutagenic call under setting [2] was “inactive; negative”; the mutagenic call (Test System: AMES SALMONELLA TYPHIMURIUM, Strain/Indicator: TA100, Metabolic Activation: HAMSTER, LIVER, S-9, AROCLOR 1254 (30%), Method: PREINCUBATION) was “inactive; negative”; the mutagenic call under setting [3] was “inactive; negative”; the mutagenic call (Test System: AMES SALMONELLA TYPHIMURIUM, Strain/Indicator: TA100, Metabolic Activation: NONE, Method: STANDARD PLATE) is “inactive; negative”; the mutagenic call (Test System: AMES SALMONELLA TYPHIMURIUM, Strain/Indicator: TA100, Metabolic Activation: RAT, LIVER, S-9, AROCLOR 1254 (30%), Method: PREINCUBATION) is “inactive; negative”; the mutagenic call under setting [4] is “inactive; negative”. Further, the mutagenic call reads like this: (Test System: AMES SALMONELLA TYPHIMURIUM, Strain/Indicator: TA1538, Metabolic Activation: HAMSTER, LIVER, S-9, AROCLOR 1254 (30%), Method: PREINCUBATION) “active; positive”; (Test System: AMES SALMONELLA TYPHIMURIUM, Strain/Indicator: TA1538, Metabolic Activation: RAT, LIVER, S-9, AROCLOR 1254 (30%), Method: PREINCUBATION) “active; positive”; (Test System: CHINESE HAMSTER V-79, Strain/Indicator: V-79/6-THIOGUANINE, Metabolic Activation: NONE, Method: SUSPENSION/PLATE) “inactive; negative”; (Test System: CHINESE HAMSTER V-79, Strain/Indicator: V-79/6-THIOGUANINE, Metabolic Activation: RAT, LIVER, S-9, PHENOBARBITAL AND BETA-NAPHTHOFLAVONE, Method: SUSPENSION/PLATE) “active; positive”.
Regarding `CCc1cc(Cc2cc(C)c(N)c(CC)c2)cc(C)c1N`, the mutagenic call reads like this: under setting [2], “inactive; negative”; under setting [4], “inactive; negative”.
`O=C1OC(=O)c2c(Br)c(Br)c(Br)c(Br)c21`: the mutagenic call is, setting by setting: (Test System: AMES SALMONELLA TYPHIMURIUM, Strain/Indicator: TA98, Metabolic Activation: HAMSTER, LIVER, S-9, AROCLOR 1254 (10%), Method: PREINCUBATION) “inactive; negative”; under setting [1], “inactive; negative”; (Test System: AMES SALMONELLA TYPHIMURIUM, Strain/Indicator: TA98, Metabolic Activation: RAT, LIVER, S-9, AROCLOR 1254 (10%), Method: PREINCUBATION) “inactive; negative”; (Test System: AMES SALMONELLA TYPHIMURIUM, Strain/Indicator: TA100, Metabolic Activation: HAMSTER, LIVER, S-9, AROCLOR 1254 (10%), Method: PREINCUBATION) “inactive; negative”; under setting [3], “inactive; negative”; (Test System: AMES SALMONELLA TYPHIMURIUM, Strain/Indicator: TA100, Metabolic Activation: RAT, LIVER, S-9, AROCLOR 1254 (10%), Method: PREINCUBATION) “inactive; negative”. The mutagenic call (Test System: AMES SALMONELLA TYPHIMURIUM, Strain/Indicator: TA1535, Metabolic Activation: HAMSTER, LIVER, S-9, AROCLOR 1254 (10%), Method: PREINCUBATION) is “inactive; negative”; the mutagenic call (Test System: AMES SALMONELLA TYPHIMURIUM, Strain/Indicator: TA1535, Metabolic Activation: NONE, Method: PREINCUBATION) is “inactive; negative”; the mutagenic call (Test System: AMES SALMONELLA TYPHIMURIUM, Strain/Indicator: TA1535, Metabolic Activation: RAT, LIVER, S-9, AROCLOR 1254 (10%), Method: PREINCUBATION) was “inactive; negative”; the mutagenic call (Test System: AMES SALMONELLA TYPHIMURIUM, Strain/Indicator: TA1537, Metabolic Activation: HAMSTER, LIVER, S-9, AROCLOR 1254 (10%), Method: PREINCUBATION) was “inactive; negative”; the mutagenic call (Test System: AMES SALMONELLA TYPHIMURIUM, Strain/Indicator: TA1537, Metabolic Activation: NONE, Method: PREINCUBATION) was “inactive; negative”; the mutagenic call (Test System: AMES SALMONELLA TYPHIMURIUM, Strain/Indicator: TA1537, Metabolic Activation: RAT, LIVER, S-9, AROCLOR 1254 (10%), Method: PREINCUBATION) is “inactive; negative”.
`O.O.O=C([O-])C(=O)[O-].O=C([O-])C(=O)[O-].[K+].[K+].[Pt+2]`: the mutagenic call under setting [1] was “inactive; negative”; the mutagenic call (Test System: AMES SALMONELLA TYPHIMURIUM, Strain/Indicator: TA98, Metabolic Activation: RAT, LIVER, S-9, AROCLOR 1254, Method: PREINCUBATION) is “inactive; negative”; the mutagenic call under setting [3] is “inactive; negative”; the mutagenic call (Test System: AMES SALMONELLA TYPHIMURIUM, Strain/Indicator: TA100, Metabolic Activation: RAT, LIVER, S-9, AROCLOR 1254, Method: PREINCUBATION) was “inactive; negative”.
As to `CC(=O)OCC(=O)NCCCOc1cccc(CN2CCCCC2)c1`, the mutagenic call is “inactive; negative” (Test System: AMES SALMONELLA TYPHIMURIUM, Strain/Indicator: TA98, Metabolic Activation: NONE); “inactive; negative” (Test System: AMES SALMONELLA TYPHIMURIUM, Strain/Indicator: TA98, Metabolic Activation: RAT, LIVER, S-9, PHENOBARBITAL AND 5,6-BENZOFLAVONE); “inactive; negative” (Test System: AMES SALMONELLA TYPHIMURIUM, Strain/Indicator: TA100, Metabolic Activation: NONE); “inactive; negative” (Test System: AMES SALMONELLA TYPHIMURIUM, Strain/Indicator: TA100, Metabolic Activation: RAT, LIVER, S-9, PHENOBARBITAL AND 5,6-BENZOFLAVONE); “inactive; negative” (Test System: AMES SALMONELLA TYPHIMURIUM, Strain/Indicator: TA1535, Metabolic Activation: NONE); “inactive; negative” (Test System: AMES SALMONELLA TYPHIMURIUM, Strain/Indicator: TA1535, Metabolic Activation: RAT, LIVER, S-9, PHENOBARBITAL AND 5,6-BENZOFLAVONE). Moreover, the mutagenic call (Test System: AMES SALMONELLA TYPHIMURIUM, Strain/Indicator: TA1537, Metabolic Activation: NONE) was “inactive; negative”; the mutagenic call (Test System: AMES SALMONELLA TYPHIMURIUM, Strain/Indicator: TA1537, Metabolic Activation: RAT, LIVER, S-9, PHENOBARBITAL AND 5,6-BENZOFLAVONE) was “inactive; negative”; the mutagenic call (Test System: AMES SALMONELLA TYPHIMURIUM, Strain/Indicator: TA1538, Metabolic Activation: NONE) is “inactive; negative”; the mutagenic call (Test System: AMES SALMONELLA TYPHIMURIUM, Strain/Indicator: TA1538, Metabolic Activation: RAT, LIVER, S-9, PHENOBARBITAL AND 5,6-BENZOFLAVONE) was “inactive; negative”; the mutagenic call (Test System: E. COLI, Strain/Indicator: WP2 UVRA, Metabolic Activation: NONE) is “inactive; negative”; the mutagenic call (Test System: E. COLI, Strain/Indicator: WP2 UVRA, Metabolic Activation: RAT, LIVER, S-9, PHENOBARBITAL AND 5,6-BENZOFLAVONE) was “inactive; negative”.
